In patent US11932619B1, “3-(2-(6-Methoxypyridin-3-yl)-4,5-diphenyl-1H-imidazol-1-yl)-N,N-dimethylpropan-1-amine as an anticancer compound” (KING FAISAL UNIVERSITY, priority 2023, dated 2024):

Assays:
[1] = test system: human prostate cancer cells (PC3); experiment: Assessment of cytotoxicity by SRB assay; type: cell-based; details: 0.01 μM to 100 μM for 72 h
Method: (§1) The human prostate cancer cells (PC3) and human osteosarcoma cells (MG-63) were obtained from Nawah Scientific Inc. (Mokatam, Cairo, Egypt) and cultured in DMEM (Dulbecco's modified eagle's medium), Gibco, USA, supplemented with fetal bovine serum (FBS) at a concentration of 10% and 100 U/mL of penicillin and streptomycin (PS). The Cells were incubated at 37° C. in a humidified environment that contained 5% CO2.
(§2) Cells were seeded in 96-well plates as aliquots of 100 μL cell suspension and incubated in a complete media for 24 h. afterward, cells were treated with 3-(2-(6-Methoxypyridin-3-yl)-4,5-diphenyl-1H-imidazol-1-yl)-N,N-dimethylpropan-1-amine at diverse concentrations ranging from 0.01 μM to 100 μM for 72 h. Then, cells were fixed at 4° C. for one hour with 150 μL of 10% trichloroacetic acid (TCA). After washing the cells five times with distilled water, 70 μL of sulforhodamine (SRB) solution (0.4% w/v) was added and incubated for 10 min at room temperature in a dark place. […] Then, 150 μL of Tris pH 10.5 (10 mM) was added, and the absorbance was measured at 540 nm using a BMG LABTECH®- FLUOstar Omega microplate reader (Ortenberg, Germany). Half maximal inhibitory concentrations (IC50) values were calculated for each experiment using GraphPad Prism 6 software. […]
(§3) The inhibition was calculated using the following equation: Inhibition %=100-Average Viability

[2] = test system: human osteosarcoma cells (MG-63); experiment: Assessment of cytotoxicity by SRB assay; type: cell-based; details: MG-63 cells, 0.01 μM to 100 μM for 72 h
Method: as §1, §2, §3

In the case of COc1ccc(-c2nc(-c3ccccc3)c(-c3ccccc3)n2CCCN(C)C)cn1 [3-(2-(6-Methoxypyridin-3-yl)-4,5-diphenyl-1H-imidazol-1-yl)-N,N-dimethylpropan-1-amine], the antiproliferative activities [1] was “excellent antiproliferative activities”, the antiproliferative activities [2] was “excellent antiproliferative activities” and the melting point was 125 to 127 °C.
